The subject of experiment [1] is platelets. Nature of the experiment: Platelet dense granule release (Chrono-Lume). The class given is cell-based, human. The note with it: induced by CRPXL, TRAP-6 and U46619; RA pre-treatment 1 hour. As for the experimental part: (§1) To validate the predictive power of the developed framework, direct experimental evidence of the predicted mechanistic role of Rosmarinic acid (RA) in VD was sought. […] Therefore, whether RA influenced platelet activation in vitro was evaluated. As platelets can be stimulated through different activation pathways, RA effects can, in principle, occur in any of them. To test these different possibilities, platelets were pretreated with RA and then activated with: 1) glycoprotein VI by collagen or collagen-related peptide (Collagen/CRPXL); 2) protease-activated receptors-1,4 by thrombin receptor activator peptide-6 (TRAP-6); 3) prostanoid thromboxane receptor by the thromboxane A2 analogue (U46619); and 4) P2Y1/12 receptor stimulation by adenosine diphosphate (ADP). […] Platelet aggregation was measured by turbidimetric aggregometry. […] Platelet aggregation was monitored for 6 minutes at 37° C. with a stir speed of 1000 rpm and the maximum extend of aggregation recorded using AGGRO/LINK®8 software. In some cases, dense granule release was simultaneously recorded by supplementing samples with Chrono-Lume® (Chrono-Log®, 395) according to the manufacturer's instructions.

Experiment [2] relates to platelets. Nature of the experiment: Platelet functions after ADP stimulation (control, distant receptor). It is filed as cell-based, human. The note with it: stimulant whose receptor is distant from the RA-VD-module (ADP). As for the experimental part:
as §1, with “instructions. […] Percent-positive cells were determined by gating on fluorescence intensity compared to unstimulated samples.” for “instructions.”

The subject of experiment [3] is A549. The note with it: A549 after treatment with RA; versus all other genes; cited from earlier work.
Experiment [4] deals with MCF7 cell line. Particulars: MCF7 after treatment with RA; versus all other genes; cited from earlier work.
The conditions of experiment [5]: rat models of ischemia/reperfusion injury; cited from earlier work.

In the case of `O=C(/C=C/c1ccc(O)c(O)c1)O[C@H](Cc1ccc(O)c(O)c1)C(=O)O` [rosmarinic acid], the dense granule secretion result in experiment [1] is “impairs”. The platelet functions result in experiment [2] was “did not affect”. Moreover, the “perturbation scores for genes directly regulated by NFE2L2” value in experiment [3] and in experiment [4] was “higher perturbation scores” in each case. In addition, in experiment [5], the cardiac function entry is reported as “restore cardiac function”.

The record behind these values is patent US20220184020A1, “Polyphenols as Modulators of Platelet Function” (Northeastern University, priority 2019, published 2022).
